The structures appear in SMILES notation. In brackets after ≈: the same amount, converted by molar mass.

The source of these data is patent US20240190904A1, “Heteroaryl compounds as inhibitors of RIP2 kinase, composition and application thereof” (Accro Bioscience (HK) Limited, priority 2021, published 2024).

One data set concerns the target RIP2 kinase (Homo sapiens (Human), UniProt O43353). Description: Binding affinity assay (Kd). On the procedure: For most assays, kinase-tagged T7 phage strains were prepared in an E. coli host derived from the BL21 strain. E. coli were grown to log-phase and infected with T7 phage and incubated with shaking at 32° C. until lysis. The lysates were centrifuged and filtered to remove cell debris. The remaining kinases were produced in HEK-293 cells and subsequently tagged with DNA for qPCR detection. Streptavidin coated magnetic beads were treated with biotinylated small molecule ligands for 30 minutes at room temperature to generate affinity resins for kinase assays. The liganded beads were blocked with excess biotin and washed with blocking buffer (SeaBlock (Pierce), 1% BSA, 0.05% Tween 20, 1 mM DTT) to remove unbound ligand and to reduce non-specific binding. Binding reactions were assembled by combining kinases, liganded affinity beads, and test compounds in 1× binding buffer (20% SeaBlock, 0.17×PBS, 0.05% Tween 20, 6 mM DTT). Test compounds were prepared as 111× stocks in 100% DMSO. Kds were determined using an 11-point 3-fold compound dilution series with three DMSO control points. All compounds for Kd measurements are distributed by acoustic transfer (non-contact dispensing) in 100% DMSO. The compounds were then diluted directly into the assays such that the final concentration of DMSO was 0.9%. All reactions performed in polypropylene 384-well plate. Each was a final volume of 0.02 ml. The assay plates were incubated at room temperature with shaking for 1 hour and the affinity beads were washed with wash buffer (1×PBS, 0.05% Tween 20). The beads were then re-suspended in elution buffer (1×PBS, 0.05% Tween 20, 0.5 μM nonbiotinylated affinity ligand) and incubated at room temperature with shaking for 30 minutes. The kinase concentration in the eluates was measured by qPCR.
An 11-point 3-fold serial dilution of each test compound was prepared in 100% DMSO at 100× final test concentration and subsequently diluted to 1× in the assay (final DMSO concentration=1%). Most Kds were determined using a compound top concentration=30,000 nM. If the initial Kd determined was <0.5 nM (the lowest concentration tested), the measurement was repeated with a serial dilution starting at a lower top concentration.
Binding constants (Kds) were calculated with a standard dose-response curve using the Hill equation: […]
The Hill Slope was set to −1.
Curves were fitted using a non-linear least square fit with the Levenberg-Marquardt algorithm.

A short description of data set [1]: Thermodynamic solubility test. In kind it is physicochemical. Particulars: thermodynamic from solid; FaSSIF pH 6.5, thermodynamic. On the procedure:
• a. Add assay buffer into compound powder to make 4 mg/mL solution. • b. Sample tubes are shaken for 1 hour (1000 rpm), then equilibrated over night at room temperature. • c. Samples are centrifuged (10 min-12000 rpm) to precipitate un-dissolved particles. • d. Supernatants are transferred to new tubes. • e. Concentrations of the supernatants after centrifugation are determined by LCMSMS detection.

Another data set can be described thus: Caco-2 permeability test. In kind it is in vitro ADME. Particulars: human, Caco-2, pH 7.4. The method, then:
(§1) • 1. Prewarm HBSS Buffer in 37° C. water bath • 2. Take compounds from −20° C., sonicate for a few minutes (no less than 1 minute) • 3. Solution preparation
(§2) For A-to-B direction: • HBSS buffer with 0.3% DMSO and 5 μM LY: add 150 μL DMSO and 50 μL LY (5 mM) into 50 ml HBSS buffer (pH7.4). • HBSS buffer with 0.1% DMSO and 5 μM LY: add 50 μL DMSO and 50 μL LY (5 mM) into 50 mL HBSS buffer (pH7.4).
(§3) For B-to-A direction: • HBSS buffer with 0.3% DMSO: add 150 μL DMSO into 50 ml HBSS buffer (pH7.4) • HBSS buffer with 0.1% DMSO: add 50 μL DMSO into 50 ml HBSS buffer (pH7.4).
(§4) Receiver Solution Buffer:
(§5) Prepare HBSS buffer with 0.4% DMSO: add 200 μL DMSO into 50 ml HBSS buffer (pH7.4).
(§6) For B-to-A direction: • Prepare HBSS buffer with 0.4% DMSO and 5 uM LY: add 200 μL DMSO and 50 μL LY (5 mM) into 50 ml HBSS buffer (pH7.4).
(§7) Take cell culture plate out of incubator, wash the cell monolayers with HBSS buffer, and then measure TEER values at Rm temperature. • 5. Centrifuge the compound solution (from step 3) at 4000 rpm for 5 min before loading to donor chambers. • 6. Add solution based on the volumes listed in the following table (make sure to take extra 100 uL of donor sample for T0 as Backup).
(§8) • 7. To determine LY concentration in the apical chamber, take 100 μL sample from apical chambers into an opaque plate for LYT0. • 8. Prewarm apical and basolateral plates at 37° C. for about 5 min, then begin transport by placing the apical plate onto basolateral plate. • 9. Keep the plates in incubator at 37° C. for 90 min • 10. Prepare 20× solution
(§9) • 11. Separate the apical plate from the basolateral plate after 90-min incubation. • 12. Take 100 μL samples from basolateral plate to an opaque plate as LYT90. • 13. Measure LY concentrations for LYT0 and LYT90 by Fluorometer (at excitation of 485 nm/emission of 535 nm). • 14. Sample preparation for LC-MS/MS: Donor or receiver samples are diluted by 0.4% DMSO HBSS, then mix with ACN with IS (Osalmid or Imipramine)

The next data set relates to Caco-2. Nature of the data set: Caco-2 permeability test. In kind it is in vitro ADME. To be noted: Caco-2. On the procedure:
as §1, §2, §3, §4, §5, §6, §7, §8, §9
For orientation: Passage across Caco-2 layers is used to estimate intestinal permeability.

Data set [2] in a line: Metabolic stability test, HLM. The class given is in vitro ADME. Particulars: human, liver microsomes. The method, then:
(§10) • 1. Buffers: • Buffer A: 1.0 L of 0.1 M monobasic Potassium Phosphate buffer containing 1.0 mM EDTA • Buffer B: 1.0 L of 0.1 M Dibasic Potassium Phosphate buffer containing 1.0 mM EDTA • Buffer C: 0.1 M Potassium Phosphate buffer, 1.0 mM EDTA, pH 7.4 by titrating 700 mL of buffer B with buffer A while monitoring with the pH meter. • 2. Reference compounds (Ketanserin) and test compounds spiking solution: • 500 μM spiking solution: add 10 μL of 10 mM DMSO stock solution into 190 μL ACN. • 1.5 μM spiking solution in microsomes (0.75 mg/mL): add 1.5 μL of 500 μM spiking solution and 18.75 μL of 20 mg/mL liver microsomes into 479.75 μL of Buffer C on ice. • 3. Prepare NADPH stock solution (6 mM) by dissolving NADPH into buffer C. • 4. Dispense 30 μL of 1.5 μM spiking solution containing 0.75 mg/mL microsomes solution to the assay plates designated for different time points (0-, 5-, 15-, 30-, 45-min) on ice. • 5. For 0-min time point, add 135 μL of ACN containing IS to the wells of 0-min plate and then add 15 μL of NADPH stock solution (6 mM). • 6. Pre-incubate all other plates at 37° C. for 5 minutes. • 7. Add 15 μL of NADPH stock solution (6 mM) to the plates to start the reaction and timing. • 8. At 5-min, 15-min, 30-min, and 45-min, add 135 μL of ACN containing IS to the wells of corresponding plates, respectively, to stop the reaction. • 9. After quenching, shake the plates at the vibrator (IKA, MTS 2/4) for 10 min (600 rpm/min) and then centrifuge at 5594 g for 15 min (ThermoMultifuge×3R). • 10. Transfer 50 μL of the supernatant from each well into a 96-well sample plate containing 50 μL of ultra pure water (Millipore, ZMQS50F01) for LC/MS analysis.
Background: Liver microsomes are vesicles of endoplasmic reticulum, rich in cytochrome P450 enzymes.

A short description of data set [3]: Metabolic stability test, RLM. The class given is in vitro ADME. Particulars: rat, liver microsomes. On the procedure:
as §10

The nature of data set [4]: Metabolic stability test, DLM. The class given is in vitro ADME. Particulars: dog, liver microsomes. The method, then:
as §10

Chain of RIP2 kinase (O43353 whole entry): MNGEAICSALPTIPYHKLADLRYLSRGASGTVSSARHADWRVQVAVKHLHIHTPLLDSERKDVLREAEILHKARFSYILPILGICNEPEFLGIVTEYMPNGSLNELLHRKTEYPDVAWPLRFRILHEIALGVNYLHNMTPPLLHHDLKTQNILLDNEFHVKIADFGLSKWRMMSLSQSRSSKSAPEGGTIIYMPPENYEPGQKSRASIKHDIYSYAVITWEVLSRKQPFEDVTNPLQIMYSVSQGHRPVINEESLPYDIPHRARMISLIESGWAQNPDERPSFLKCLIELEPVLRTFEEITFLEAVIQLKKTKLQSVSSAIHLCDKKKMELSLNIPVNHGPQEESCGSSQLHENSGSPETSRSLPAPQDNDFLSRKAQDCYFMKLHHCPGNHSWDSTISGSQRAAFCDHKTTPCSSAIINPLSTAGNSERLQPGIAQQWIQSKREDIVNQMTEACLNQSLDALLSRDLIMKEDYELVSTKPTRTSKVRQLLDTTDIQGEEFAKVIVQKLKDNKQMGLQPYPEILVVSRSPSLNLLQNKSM

As a reminder, the Kd is the concentration at which binding is half-saturated. A lower Kd goes with higher affinity. As usually defined, the solubility is the dissolved amount per volume that the medium holds. Lower therefore signals a poorly soluble substance. The term Papp A→B denotes the apparent permeability from the apical to the basolateral side of a cell layer. Lower therefore signals poor permeation. By Papp B→A is commonly meant how fast a substance crosses the layer from the basolateral side. Turning to `CP(C)(=O)c1cc2c(Nc3ccc4scnc4c3)ccnc2cc1-c1cnn(C2CCNCC2)c1` [A13], the affinity at RIP2 kinase, expressed as Kd, was 1.4 nM. Further, the concentration in solution in data set [1] (solubility) came to 4.33 mM (≈ 2170 µg/mL). In the data set “Caco-2 permeability test” (A-B), this molecule yielded a Papp A→B at 90 min of less than 0.14 ×10⁻⁶ cm/s. In addition, the Papp B→A at 90 min in “Caco-2 permeability test” (B-A) amounted to 0.27 ×10⁻⁶ cm/s. The efflux ratio at 90 min in “Caco-2 permeability test” (efflux ratio, read-out: Caco-2 Permeability B-A/A-B) is more than 1.93. The “permeability (in words)” value in the data set with Caco-2 is reported as “low”. The CLint scaled at 1 μM amounted to 0.69 mL/min/kg in data set [2] (pH 7.4, read-out: Cl (mL/min/kg) HLM); 31.6 mL/min/kg in data set [3] (pH 7.4, read-out: Cl (mL/min/kg) RLM); 17.4 mL/min/kg in data set [4] (pH 7.4, read-out: Cl (mL/min/kg) DLM). In addition, the half-life at 1 μM is 2520 min in data set [2] (pH 7.4, read-out: T1/2 (min) HLM); 78.7 min in data set [3] (pH 7.4, read-out: T1/2 (min) RLM); 198 min in data set [4] (pH 7.4, read-out: T1/2 (min) DLM).
